The results in this text go back to patent publication US9493487B2, “3-(1H-imidazo[4,5-C]pyridin-2-YL)-1H-pyrazolo[3,4-B]pyridine and therapeutic uses thereof” (Samumed, LLC, priority 2014, dated 2016).

The term IC50 denotes the concentration that inhibits the measured activity by half.

Bounds are passed on as bounds.

The experiment has as its system Wnt activity (Sp5-Luc reporter, SW480 colon carcinoma cells). As to the kind of experiment: Sp5-Luc Wnt reporter gene assay in SW480 colon carcinoma cells. Particulars: Homo sapiens; SW480 cells stably expressing Sp5-Luc reporter; 42 h incubation; BrightGlo luminescence normalized to DMSO. It is filed as cell-based. From the text:
The screening assay for Wnt activity is described as follows. Reporter cell lines can be generated by stably transducing cancer cell lines (e.g., colon cancer) or primary cells (e.g., IEC-6 intestinal cells) with a lentiviral construct that includes a Wnt-responsive promoter driving expression of the firefly luciferase gene.
SW480 colon carcinoma cells were transduced with a lentiviral vector expressing luciferase with a human Sp5 promoter consisting of a sequence of eight TCF/LEF binding sites. SW480 cells stably expressing the Sp5-Luc reporter gene and a hygromycin resistance gene were selected by treatment with 150 μg/ml of hygromycin for 7 days. These stably transduced SW480 cells were expanded in cell culture and used for all further screening activities. For Sp5-Luc reporter gene assays, the cells were plated at 10,000 cells/well in 96-well plates with growth medium containing 10% fetal calf serum and incubated overnight at 37° C. and 5% CO2. Each compound was dissolved in DMSO as a 10 mM stock in standard j-vials and used to prepare compound source plates in dose-response format with 3-fold serial dilutions and a 10 mM top concentration. Compound transfer from serially diluted source plates to assay plates containing the cells was accomplished using a pintool (Multimek 96, Beckman equipped with V&P Scientific FP1S50H pins) based liquid handling protocol. This protocol used a slotted pin to transfer 50 nl of compound from a source plate well to an assay plate well containing 50 μl of cells in growth medium. […] Control wells received 50 nl of DMSO treatment for normalization and calculating IC50 values. The treated cells were incubated at 37° C. and 5% CO2 for an additional forty-two hours. Following incubation, the growth medium was removed and 50 μl of BrightGlo luminescence reagent (Promega) was added to each well of the 96-well assay plates. The plates were placed on an orbital shaker for 5 min and then luminescence was quantified on the Victor3 (Perkin Elmer) plate reader. Readings were normalized to DMSO only treated cells, and normalized activities were utilized for IC50 calculations using the dose-response log (inhibitor) vs. response-variable slope (four parameters) nonlinear regression feature available in GraphPad Prism 5.0 or 6.0.
In general terms: In a reporter assay the amount or activity of a reporter protein is the signal.
The compound `Fc1cccc(-c2nccc3[nH]c(-c4n[nH]c5ncc(-c6cncc(CN7CCC(F)(F)C7)c6)cc45)nc23)c1` [Compound 25, 5-(5-((3,3-Difluoropyrrolidin-1-yl)methyl)pyridin-3-yl)-3-(4-(3-fluorophenyl)-1H-imidazo[4,5-c]pyridin-2-yl)-1H-pyrazolo[3,4-b]pyridine] returned an IC50 of 33.9 nM.
Compound `Fc1ccc(-c2nccc3[nH]c(-c4n[nH]c5ncc(-c6cncnc6)cc45)nc23)cc1` [Compound 52, 3-(4-(4-Fluorophenyl)-1H-imidazo[4,5-c]pyridin-2-yl)-5-(pyrimidin-5-yl)-1H-pyrazolo[3,4-b]pyridine] registered an IC50 of 155 nM.
Take `c1cncc(-c2cnc3[nH]nc(-c4nc5c(-c6cccnc6)nccc5[nH]4)c3c2)c1` [Compound 82, 5-(Pyridin-3-yl)-3-(4-(pyridin-3-yl)-1H-imidazo[4,5-c]pyridin-2-yl)-1H-pyrazolo[3,4-b]pyridine]: 41.9 nM corresponded to half-maximal inhibition (IC50).
`c1cncc(-c2nccc3[nH]c(-c4n[nH]c5ncc(-c6cncc(CN7CCCCC7)c6)cc45)nc23)c1` [Compound 93, 5-(5-(Piperidin-1-ylmethyl)pyridin-3-yl)-3-(4-(pyridin-3-yl)-1H-imidazo[4,5-c]pyridin-2-yl)-1H-pyrazolo[3,4-b]pyridine] registered an IC50 of 3880 nM. This IC50 lies about 93-fold higher than the previous one.
Consider `O=C(Nc1cncc(-c2cnc3[nH]nc(-c4nc5c(-c6ccncc6)nccc5[nH]4)c3c2)c1)C1CCCCC1` [Compound 126, N-(5-(3-(4-(Pyridin-4-yl)-1H-imidazo[4,5-c]pyridin-2-yl)-1H-pyrazolo[3,4-b]pyridin-5-yl)pyridin-3-yl)cyclohexanecarboxamide], for which the IC50 came out at 1120 nM.
`Cc1cn(-c2nccc3[nH]c(-c4n[nH]c5ncc(-c6cncc(NC(=O)C(C)(C)C)c6)cc45)nc23)cn1` [Compound 190, N-(5-(3-(4-(4-Methyl-1H-imidazol-1-yl)-1H-imidazo[4,5-c]pyridin-2-yl)-1H-pyrazolo[3,4-b]pyridin-5-yl)pyridin-3-yl)pivalamide]: 1580 nM corresponded to half-maximal inhibition (IC50).
As to `CC(C)C(=O)Nc1cncc(-c2cnc3[nH]nc(-c4nc5c(N6CCN(C)CC6)nccc5[nH]4)c3c2)c1` [Compound 217, N-(5-(3-(4-(4-Methylpiperazin-1-yl)-1H-imidazo[4,5-c]pyridin-2-yl)-1H-pyrazolo[3,4-b]pyridin-5-yl)pyridin-3-yl)isobutyramide], the IC50 is 673 nM.
As to `CN1CCN(c2nccc3[nH]c(-c4n[nH]c5ncc(-c6cncc(NC(=O)C7CCCC7)c6)cc45)nc23)CC1` [Compound 229, N-(5-(3-(4-(4-Methylpiperazin-1-yl)-1H-imidazo[4,5-c]pyridin-2-yl)-1H-pyrazolo[3,4-b]pyridin-5-yl)pyridin-3-yl)cyclopentanecarboxamide], it took 1550 nM to reach half-maximal inhibition (IC50). Against the preceding compound, the IC50 is about 2.3-fold higher.
The compound `CN1CCN(c2nccc3[nH]c(-c4n[nH]c5ncc(-c6cncnc6)cc45)nc23)CC1` [Compound 234, 3-(4-(4-Methylpiperazin-1-yl)-1H-imidazo[4,5-c]pyridin-2-yl)-5-(pyrimidin-5-yl)-1H-pyrazolo[3,4-b]pyridine] came in with an IC50 of 179 nM. This IC50 lies about 8.7-fold lower than the previous one.
`CCNCc1cncc(-c2cnc3[nH]nc(-c4nc5c(-c6ccoc6)nccc5[nH]4)c3c2)c1` [Compound 266, N-((5-(3-(4-(Furan-3-yl)-1H-imidazo[4,5-c]pyridin-2-yl)-1H-pyrazolo[3,4-b]pyridin-5-yl)pyridin-3-yl)methyl)ethanamine] showed an IC50 of 339 nM.
For `CCCCC(=O)Nc1cncc(-c2cnc3[nH]nc(-c4nc5c(-c6ccoc6)nccc5[nH]4)c3c2)c1` [Compound 278, N-(5-(3-(4-(Furan-3-yl)-1H-imidazo[4,5-c]pyridin-2-yl)-1H-pyrazolo[3,4-b]pyridin-5-yl)pyridin-3-yl)pentanamide], the IC50 came out at 56 nM.
`CCCC(=O)Nc1cncc(-c2cnc3[nH]nc(-c4nc5c(-c6cc(F)cc(CNS(C)(=O)=O)c6)nccc5[nH]4)c3c2)c1` [Compound 407, N-(5-(3-(4-(3-Fluoro-5-(methylsulfonamidomethyl)phenyl)-1H-imidazo[4,5-c]pyridin-2-yl)-1H-pyrazolo[3,4-b]pyridin-5-yl)pyridin-3-yl)butyramide]: the IC50 worked out at 74.1 nM. This IC50 and that of the compound before are within 1.5-fold of each other.
`CS(=O)(=O)NCc1cc(F)cc(-c2nccc3[nH]c(-c4n[nH]c5ncc(-c6cncc(CNCc7ccccc7)c6)cc45)nc23)c1` [Compound 413, N-(3-(2-(5-(5-((Benzylamino)methyl)pyridin-3-yl)-1H-pyrazolo[3,4-b]pyridin-3-yl)-1H-imidazo[4,5-c]pyridin-4-yl)-5-fluorobenzyl)methanesulfonamide] registered an IC50 of 143 nM.
`Fc1cccc(-c2nccc3[nH]c(-c4n[nH]c5ncc(C6=CCNCC6)cc45)nc23)c1` [Compound 886, 3-(4-(3-Fluorophenyl)-1H-imidazo[4,5-c]pyridin-2-yl)-5-(1,2,3,6-tetrahydropyridin-4-yl)-1H-pyrazolo[3,4-b]pyridine] gave an IC50 of 3700 nM. This IC50 is about 26-fold higher than that of the compound before.
`Fc1cccc(-c2nccc3[nH]c(-c4n[nH]c5ncc(-c6cncc(OC7CCCCC7)c6)cc45)nc23)c1` [Compound 891, 5-(5-(Cyclohexyloxy)pyridin-3-yl)-3-(4-(3-fluorophenyl)-1H-imidazo[4,5-c]pyridin-2-yl)-1H-pyrazolo[3,4-b]pyridine] showed an IC50 of 935 nM.
With `Fc1cccc(-c2nccc3[nH]c(-c4n[nH]c5ncc(-c6cncc(OCCN7CCCC7)c6)cc45)nc23)c1` [Compound 894, 3-(4-(3-Fluorophenyl)-1H-imidazo[4,5-c]pyridin-2-yl)-5-(5-(2-(pyrrolidin-1-yl)ethoxy)pyridin-3-yl)-1H-pyrazolo[3,4-b]pyridine], the IC50 was 1500 nM.
`Oc1cncc(-c2cnc3[nH]nc(-c4nc5c(-c6cccc(F)c6)nccc5[nH]4)c3c2)c1` [Compound 897, 5-(3-(4-(3-Fluorophenyl)-1H-imidazo[4,5-c]pyridin-2-yl)-1H-pyrazolo[3,4-b]pyridin-5-yl)pyridin-3-ol] yielded an IC50 of 23 nM.
`Fc1cccc(-c2nccc3[nH]c(-c4n[nH]c5ncc(-c6cncc(OCc7ccccc7)c6)cc45)nc23)c1` [Compound 898, 5-(5-(Benzyloxy)pyridin-3-yl)-3-(4-(3-fluorophenyl)-1H-imidazo[4,5-c]pyridin-2-yl)-1H-pyrazolo[3,4-b]pyridine] had an IC50 of 3260 nM.
The compound `O=C(CC1CCCCC1)Nc1cncc(-c2cnc3[nH]nc(-c4nc5c(-c6cccc(F)c6)nccc5[nH]4)c3c2)c1` [Compound 899, 2-Cyclohexyl-N-(5-(3-(4-(3-fluorophenyl)-1H-imidazo[4,5-c]pyridin-2-yl)-1H-pyrazolo[3,4-b]pyridin-5-yl)pyridin-3-yl)acetamide] gave an IC50 of 1970 nM. Against the preceding compound, the IC50 is about 1.7-fold lower.
Take `Fc1cccc(-c2nccc3[nH]c(-c4n[nH]c5ncc(-c6ccccn6)cc45)nc23)c1` [Compound 901, 3-(4-(3-Fluorophenyl)-1H-imidazo[4,5-c]pyridin-2-yl)-5-(pyridin-2-yl)-1H-pyrazolo[3,4-b]pyridine]: the IC50 is more than 10000 nM.
For the compound `CC(C)CC(=O)Nc1cncc(-c2cnc3[nH]nc(-c4nc5c(-c6cc(F)cc(OCCN(C)C)c6)nccc5[nH]4)c3c2)c1` [Compound 1192, N-(5-(3-(4-(3-(2-(Dimethylamino)ethoxy)-5-fluorophenyl)-1H-imidazo[4,5-c]pyridin-2-yl)-1H-pyrazolo[3,4-b]pyridin-5-yl)pyridin-3-yl)-3-methylbutanamide], 400 nM corresponded to half-maximal inhibition (IC50). This lies in the sub-micromolar range.
In turn, `CC(C)CC(=O)Nc1cncc(-c2cnc3[nH]nc(-c4nc5c(-c6cc(F)cc(OCCN7CCCC7)c6)nccc5[nH]4)c3c2)c1` [Compound 1236, N-(5-(3-(4-(3-Fluoro-5-(2-(pyrrolidin-1-yl)ethoxy)phenyl)-1H-imidazo[4,5-c]pyridin-2-yl)-1H-pyrazolo[3,4-b]pyridin-5-yl)pyridin-3-yl)-3-methylbutanamide] yielded an IC50 of 445 nM.
Turning to `CC(C)CC(=O)Nc1cncc(-c2cnc3[nH]nc(-c4nc5c(-c6cc(O)cc(F)c6)nccc5[nH]4)c3c2)c1` [Compound 1280, N-(5-(3-(4-(3-Fluoro-5-hydroxyphenyl)-1H-imidazo[4,5-c]pyridin-2-yl)-1H-pyrazolo[3,4-b]pyridin-5-yl)pyridin-3-yl)-3-methylbutanamide], the IC50 worked out at 90 nM. This IC50 is about 4.9-fold lower than that of the compound before.
For `COc1cc(F)cc(-c2nccc3[nH]c(-c4n[nH]c5ncc(-c6cncc(NC(=O)CC(C)C)c6)cc45)nc23)c1` [Compound 1324, N-(5-(3-(4-(3-Fluoro-5-methoxyphenyl)-1H-imidazo[4,5-c]pyridin-2-yl)-1H-pyrazolo[3,4-b]pyridin-5-yl)pyridin-3-yl)-3-methylbutanamide] the value was 85 nM.
